Test results from US20120214846A1, “HEXAHYDROCYCLOPENTYL[F]INDAZOLE PYRIDYL ETHANOLS AND DERIVATIVES THEREOF AS SELECTIVE GLUCOCORTICOID RECEPTOR MODULATORS” (MERCK SHARP & DOHME CORP, priority 2009, published 2012).
Converted amounts (≈) assume the structure as drawn. Where two headings read alike, the source gives them in different places.

Columns and labels:
[1] = test system: female Sprague-Dawley rats, oxazolone (OX) contact dermatitis; experiment: In Vivo Inflammation Assay (oxazolone contact dermatitis model); design: key to Inflammation Assay Glucose Effect / GL *: +: the glucose level increased compared to vehicle; −: the glucose level decreased compared to vehicle; details: for GL *: glucose effect; for Inflammation Assay Glucose Effect / Inflammation Assay Anti-inflammatory Effect: rat; for Inflammation Assay Glucose Effect: glucose level compared to vehicle; for Inflammation Assay Anti-inflammatory Effect: relative to control compound
Experimental: In Vivo Inflammation Assay
Intact adult (6 month old) female Sprague-Dawley rats are used in the oxazolone (OX) contactdermatitis model. Rats were sensitized on the ventral abdomen with OX on Day 0. On Days 7 and 9, a randomly-selected ear was challenged (same ear each time) with OX; the other was treated with vehicle. Daily treatment begun on Day 7 and continued for 7d with test compounds at different doses and 1.3 mpk 6-methlyprednisolone or 0.1 mpk DEX as positive controls. The thickness of both ears are measured on Days 11 and 14. Necropsy occurred on Day 14. The rat is first weighed, then anesthetized in a CO2 chamber until near death. Approximately 5 ml whole blood is obtained by cardiac puncture. The rat is then examined for certain signs of death and completeness. Tissues are dissected in a highly stylized fashion. Then the following endpoints were evaluated: a) inhibiting ear inflammation induced by oxazalone, b) raising serum insulin, c) reducing serum ACTH, d) reducing spleen weight, e) reducing skin thickness, f) reducing body weight, g) increasing expression of bone-related genes with potential relationship to negative glucocorticoid effects on bone; e) changes in molecular markers that correlate with skin inflammation, skin thinning, muscle atrophy and glucose metabolism in liver. All blood samples were collected between 1330-1530 hours, ˜4-5 hrs after the last compound treatment.
Primary data for this assay are left and right ear thickness. Inter-ear thickness difference (etd) is used for the estimating the level of inflammation and effectiveness of the compounds is determined by their ability to reduce the increase the thickness of the inflamed ear. Back of the rat skin thickness, spleen weight, serum insulin as well as the effects of gcs on the expression of molecular markers in skin inflammation, skin atrophy, muscle atrophy and glucose metabolism in liver are measured. Data are analyzed by anova plus fisher plsd post-hoc test to identify intergroup differences.

GR = biological target: T1, GR (Homo sapiens, UniProt P04150); experiment: Trans-Activation Modulation of Glucocorticoid Receptor Assay (GRAMMER), MMTV-LUC reporter, A549 cells; assay type: cell-based; design: endogenous in cells
T1 sequence (P04150 1-777): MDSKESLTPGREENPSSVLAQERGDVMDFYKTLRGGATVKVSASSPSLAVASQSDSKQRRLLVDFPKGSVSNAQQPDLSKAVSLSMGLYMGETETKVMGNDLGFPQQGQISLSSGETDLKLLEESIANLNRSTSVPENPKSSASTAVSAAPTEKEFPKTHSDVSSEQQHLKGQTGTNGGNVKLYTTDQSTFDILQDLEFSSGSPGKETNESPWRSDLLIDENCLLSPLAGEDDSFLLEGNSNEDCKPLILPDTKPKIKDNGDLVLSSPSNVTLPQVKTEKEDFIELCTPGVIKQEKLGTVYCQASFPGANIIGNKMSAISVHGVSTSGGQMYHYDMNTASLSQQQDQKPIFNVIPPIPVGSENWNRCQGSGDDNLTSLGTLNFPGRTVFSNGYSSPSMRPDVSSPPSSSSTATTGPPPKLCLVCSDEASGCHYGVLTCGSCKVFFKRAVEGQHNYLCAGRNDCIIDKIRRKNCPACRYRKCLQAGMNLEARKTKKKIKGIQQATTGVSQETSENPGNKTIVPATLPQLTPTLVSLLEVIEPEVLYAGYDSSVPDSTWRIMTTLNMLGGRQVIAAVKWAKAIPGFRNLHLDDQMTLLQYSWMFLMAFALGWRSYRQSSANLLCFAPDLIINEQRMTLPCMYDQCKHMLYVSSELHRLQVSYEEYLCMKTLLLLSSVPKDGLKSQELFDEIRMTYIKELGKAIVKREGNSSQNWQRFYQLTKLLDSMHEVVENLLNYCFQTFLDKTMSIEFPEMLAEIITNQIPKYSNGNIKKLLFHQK
Excerpt: Trans-Activation Modulation of Glucocorticoid Receptor Assay
This assay assesses the ability of test compounds to control transcription from the MMTV-LUC reporter gene in lung adenocarcinoma A549 cells or HeLa cells, a human […] cell line that naturally expresses the human GR. The assay measures induction of a modified MMTV LTR/promoter linked to the LUC reporter gene.
The routine transient assay consists of plating 7,000-25,000 cells/well of a white, clear-bottom 96-well plate. Alternatively, 384-well plates can be used at a cell concentration of 10,000/well. The media that the cells are plated in is “exponential growth medium” which consists of phenol red-free RPMI1640 containing 10% FBS, 4 mM L-glutamine, 20 mM HEPES, 10 ug/mL human insulin, and 20 ug/mL gentamicin. Incubator conditions are 37° C. and 5% CO2. The transfection is done in batch mode. The cells are trypsinized and counted to the right cell number in the proper amount of fresh media. It is then gently mixed with the FuGene6/DNA mix and plated onto the 96 or 384-well plate, all the wells receive 100 uL or 40 uL, respectively, of medium+lipid/DNA complex then incubated 37° C. overnight. The transfection cocktail consists of serum-free OptiMEM, FuGene6 reagent and DNA. The manufacturer's (Roche Biochemical) protocol for cocktail setup is as follows: The lipid to DNA ratio is approximately 2.5:1 and the incubation time is 20 min at room temperature. Sixteen to 24 hours after transfection, the cells are treated with dexamethasone to a final concentration of 10 nM as well as the compound of interest, such that final DMSO (vehicle) concentration is equal to or less than 1%. Each plate also contains samples that are treated with 10 nM dexamethasone alone, which is used as the 100% activity control. The cells are exposed to the compounds for 24 hours. After 24 hours, the cells are lysed by a Promega cell culture lysis buffer for approximately 30 min and then the luciferase activity in the extracts is assayed in the 96-well format luminometer. In 384-well format, Steady-Glo (Promega) or Steady-Lite (PerkinElmer) can be used by adding an equal volume of reagent to the media present in each well. […] Antagonist activity is calculated by determining the decrease in dexamethasone-induced activity in response to compound treatment relative to samples that were treated with dexamethasone alone. […] This transactivation assay can be performed in an agonist and antagonist mode to identify these different activities.
The action of compounds is also tested in an antagonist mode (Anti-GRAMMER) in which the cells are treated with medium containing an agonist such as 10 nM DEX and the ability to agents to inhibit the activation by an agonist is measured.

Solubility at pH 2 = assay type: physicochemical
[2] = A549, Table 4, literature compounds, read-out: GRAMMER EMAX
[3] = Table 4, literature compounds, read-out: GRAMMER IP
[4] = A549, A549 cells, relative to 300 nM dexamethasone, read-out: Transactivation A549 Cells GRAMMER Emax
[5] = A549 cells, inflection point, read-out: Transactivation A549 Cells GRAMMER IP
[6] = pH 2, aqueous buffer, pH 2, read-out: Solubility At pH 2

| SMILES | GL * ([1]; Table 4, literature compounds) | Emax (GR; [2]) | EC50 (GR; [3]) | solubility (Solubility at pH 2; Table 4, literature compounds) | AI* ([1]; Table 4, literature compounds, anti-inflammatory effect) | Inflammation Assay Glucose Effect [1] | Inflammation Assay Anti-inflammatory Effect [1] | Emax (GR; [4]) | EC50 (GR; [5]) | solubility (Solubility at pH 2; [6]) |
| --- | --- | --- | --- | --- | --- | --- | --- | --- | --- | --- |
| C[C@]12Cc3cnn(-c4ccc(F)cc4)c3C=C1CCC[C@@H]2[C@@H](O)c1ccccc1 [Ex. 35 WO 03/86294 A2, reference compound] | − | 40.2% | 195 nM | poor |  |  |  |  |  |  |
| CO[C@@]1(CCc2ccccc2Cl)CCC2=Cc3c(cnn3-c3ccc(F)cc3)C[C@@]21C [Ex. 103 WO 04/075840 A2, reference compound] | + | 115% | 162 nM | poor | + (the anti-inflammatory activity was equal to or greater than 40% of the effect generated by the control compound) |  |  |  |  |  |
| COc1ccnc(C(O)C[C@]2(O)CCC3=Cc4c(cnn4-c4ccc(F)cc4)C[C@@]32C)c1 (stereo partly drawn) [Example 3, (4αS,5R)-1-(4-fluorophenyl)-5-[2-hydroxy-2-(4-methoxypyridin-2-yl)ethyl]-4α-methyl-1,4,4α,5,6,7-hexahydrocyclopenta[f]indazol-5-ol] |  |  |  |  |  | + | + (the anti-inflammatory activity was equal to or greater than 40% of the effect generated by the control compound) | 21.6% | 132 nM | 174 µM (≈ 75.8 µg/mL) |
| C[C@]12Cc3cnn(-c4ccc(F)cc4)c3C=C1CC[C@@]2(O)CC(O)c1cc(C#N)ccn1 (stereo partly drawn) [Example 9, 2-{2-[(4αS,5R)-1-(4-fluorophenyl)-5-hydroxy-4α-methyl-1,4,4α,5,6,7-hexahydrocyclopenta[f]indazol-5-yl]-1-hydroxyethyl}pyridine-4-carbonitrile] |  |  |  |  |  | + | + (the anti-inflammatory activity was equal to or greater than 40% of the effect generated by the control compound) | 27.4% | 160 nM | 104 µM (≈ 44.8 µg/mL) |
| Cc1ccnc(C(O)C[C@]2(O)CCC3=Cc4c(cnn4-c4ccc(F)cc4)C[C@@]32C)c1 (stereo partly drawn) [Example 11, (4αS,5R)-1-(4-fluorophenyl)-5-[2-hydroxy-2-(4-methylpyridin-2-yl)ethyl]-4α-methyl-1,4,4α,5,6,7-hexahydrocyclopenta[f]indazol-5-ol] |  |  |  |  |  | + | + (the anti-inflammatory activity was equal to or greater than 40% of the effect generated by the control compound) | 27.7% | 162 nM | 193 µM (≈ 81 µg/mL) |
